The values that follow come from patent US20260035385A1, “BENZO NITROGEN-CONTAINING HETEROAROMATIC RING DERIVATIVE AND USE THEREOF IN MEDICINE” (Xizang Haisco Pharmaceutical Co., Ltd., priority 2021, published 2026).

In data set [1] the test system is complement alternative pathway. Description: Biological Test Example 2: complement alternative pathway inhibition, IBL alternative pathway kit, serum from healthy volunteers. Format: biochemical, human. Conditions: LPS-coated plate, 37 °C 1 h, read-out: IC50 for inhibiting alternative pathway. Here is the method: The inhibitory effect of the compounds on the complement alternative pathway was detected using the IBL alternative pathway kit (COMPL AP330 RUO). Serum from healthy volunteers was collected and 1 portion was diluted with a buffer of 20 mM EDTA in gelatin (0.15 mM CaCl2, 141 mM NaCl, 4.5 mM MgCl2, 4.2 mM HEPES, and 0.1% gelatin at pH 7.4) to 50% (v/v), and 1 portion was diluted to 50% (v/v) with a buffer of 20 mM EGTA in gelatin. The compounds were prepared in DMSO to a working solution 100 times the final concentration. Before use, 50% of the above serum was diluted 1/18 with the AP diluent in the kit. 1 part of the compound working solution (v/v) or DMSO (positive control PC) was added to 99 parts of the diluted serum containing EGTA for pretreatment for 30 min, and 1 part of DMSO (v/v) was added to 99 parts of the diluted serum containing EDTA, as negative control (NC). The serum pretreated with the above compounds (or DMSO) was added at […] to the LPS-coated 96-well plate, incubated at 37° C. for 1 h, and the plate was washed 3 times with washing solution in the kit; the conjugated chromogenic substrate was added according to the instruction in the kit, and the absorbance was read at 405 nm with a microplate reader. The inhibitory activity of the compounds on alternative pathway was calculated using the following formula.
OD^CPD was the OD value when the inhibitor was added, OD^NC was the OD value of the negative control, and OD^PC was the OD value of the positive control.
Graphpad was used to perform nonlinear regression on the final concentrations and inhibition rates of the compounds to obtain the IC50 of the compounds for inhibiting the alternative pathway.

Another data set has as its target FB (Homo sapiens, UniProt P00751). Description: biochemical.
The nature of data set [2]: Pharmacokinetic test of dogs. Conditions: male, beagle, dog, plasma, po, i.g. (5 mg/kg). Format: in vivo. On the procedure: Test objective: In this experiment, a single dose of test compounds was administered to beagle dogs intravenously and intragastrically, and the concentrations of the test compounds in plasma of the beagle dogs were measured to evaluate pharmacokinetic characteristics of the test compounds in the beagle dogs.
Experimental animals: Male beagle dogs, 8-11 kg, 1-3 years old, 6 dogs/compound. purchased from Beijing Marshall Biotechnology Co. Ltd.
Experimental method: on the day of the test, 6 beagle dogs were randomly grouped according to their body weights. The animals were fasted with water available for 14 to 18 hours one day before the administration of a test compound, and were fed 4 hours after the administration.
Sampling: Before and after the administration, 1.0 mL of blood was taken from the jugular veins or limb veins, and placed in an EDTAK2 centrifuge tube. Centrifugation was carried out at 5000 rpm at 4° C. for 10 min, and the plasma was collected.
(§1) Time points for plasma collection in IV&PO group: 0, 5 min, 15 min, 30 min, 1 h, 2 h, 4 h, 6 h, 8h, 10 h, 12h, and 24 h.
(§2) Before analysis and detection, all samples were stored at −60° C. The samples were analyzed quantitatively by LC-MS/MS.

The nature of data set [3]: Pharmacokinetic test in rats. Conditions: for maximum plasma concentration in rats / oral bioavailability in rats / time to peak: compared with LNP023, in words; for bioavailability / Cmax / Tmax / half-life / AUC(0-t): male, SD, rat, plasma, po, i.g. (10 mg/kg); for bioavailability / Cmax / Tmax / half-life / AUC(0-t) / time to peak: rats; for AUC(0-t): read-out: AUC0-24 h. The class given is in vivo, SD rats. Here is the method:
Test objective: In this experiment, a single dose of each test compound was administered to SD rats intravenously and intragastrically, and the concentrations of the test compounds in plasma of rats were measured to evaluate the pharmacokinetic characteristics of the test compounds in rats.
Experimental animals: male SD rats, 200-250 g, 6-8 weeks old, 6 rats/compound, purchased from Chengdu Ddossy Experimental Animals Co., Ltd.
Experimental method: on the day of the test, 6 SD rats were randomly grouped according to their body weight. The animals were fasted with water available for 12 to 14 hours one day before the administration of a test compound, and were fed 4 hours after the administration.
Sampling: Before and after the administration, 0.15 mL of blood sample was drawn from the orbit under isoflurane anesthesia, and placed in an EDTAK2 centrifuge tube. Centrifugation was carried out at 5000 rpm at 4° C. for 10 min, and the plasma was collected.
Time points for plasma collection in IV&PO group: 0, 5 min, 15 min, 30 min, 1 h, 2 h, 4 h, 6 h, 8 h, and 24 h.
as §2

In another data set the test system is Caco-2 cells. Briefly: Caco2 permeability test. Format: in vitro ADME. Conditions: Caco2, compared with the trifluoroacetate of LNP023, in words. Here is the method:
(§3) The experiment used a monolayer of Caco-2 cells incubated in triplicate in a 96-well Transwell plate. […] Acetonitrile containing internal standard was then added to precipitate the protein. […] The integrity of the cell monolayer after 2 h of incubation was assessed by leakage of Lucifer Yellow.

The next data set in a line: Caco2 permeability test. Conditions: human, pH 7.4, Caco-2 monolayer, 2 μM, 2 h. Format: in vitro ADME. On the procedure: as §3
A short description of data set [4]: Pharmacokinetic experiment in monkeys. Format: in vivo, cynomolgus monkeys. Conditions: for bioavailability in monkeys / oral exposure in monkeys: compared with the trifluoroacetate of LNP023, in words; for bioavailability / AUC(0-t): male, cynomolgus monkey, plasma, po, monkeys, i.g. (5 mg/kg). Here is the method:
Test objective: In this experiment, a single dose of test compounds was administered to cynomolgus monkeys intravenously and intragastrically, and the concentrations of the test compounds in plasma of the monkeys were measured to evaluate pharmacokinetic characteristics of the test compounds in the monkeys.
Experimental animals: Male cynomolgus monkeys, 3-5 kg, 3-6 years old, 6 monkeys/compound. Purchased from Suzhou Xishan Biotechnology Inc.
Experimental method: on the day of the test, 6 monkeys were randomly grouped according to their body weights. The animals were fasted with water available for 14 to 18 hours one day before the administration of a test compound, and were fed 4 hours after the administration.
Sampling: before and after the administration, 1.0 mL of blood was taken from the limb veins, and placed in an EDTAK2 centrifuge tube. Centrifugation was carried out at 5000 rpm at 4° C. for 10 min, and the plasma was collected.
as §1, §2

Where a name gives a salt, the structure may show the parent alone. Bounds are passed on as bounds.

Chain of FB (P00751 260-764 limits assumed): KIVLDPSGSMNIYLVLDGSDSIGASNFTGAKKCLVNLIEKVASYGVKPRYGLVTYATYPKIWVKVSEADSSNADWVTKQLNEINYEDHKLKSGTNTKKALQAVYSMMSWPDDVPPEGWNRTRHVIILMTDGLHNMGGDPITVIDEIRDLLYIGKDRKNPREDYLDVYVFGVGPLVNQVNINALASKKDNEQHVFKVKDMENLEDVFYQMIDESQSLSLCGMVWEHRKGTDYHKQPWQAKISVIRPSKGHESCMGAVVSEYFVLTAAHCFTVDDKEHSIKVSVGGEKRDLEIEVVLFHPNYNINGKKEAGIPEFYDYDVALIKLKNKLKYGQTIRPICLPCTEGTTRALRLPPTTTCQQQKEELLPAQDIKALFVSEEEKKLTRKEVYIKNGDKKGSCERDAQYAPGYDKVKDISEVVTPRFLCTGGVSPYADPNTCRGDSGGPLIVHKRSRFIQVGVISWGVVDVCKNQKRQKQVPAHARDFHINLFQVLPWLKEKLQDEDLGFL
Chain of FB (Q91132 23-649 partner limits assumed): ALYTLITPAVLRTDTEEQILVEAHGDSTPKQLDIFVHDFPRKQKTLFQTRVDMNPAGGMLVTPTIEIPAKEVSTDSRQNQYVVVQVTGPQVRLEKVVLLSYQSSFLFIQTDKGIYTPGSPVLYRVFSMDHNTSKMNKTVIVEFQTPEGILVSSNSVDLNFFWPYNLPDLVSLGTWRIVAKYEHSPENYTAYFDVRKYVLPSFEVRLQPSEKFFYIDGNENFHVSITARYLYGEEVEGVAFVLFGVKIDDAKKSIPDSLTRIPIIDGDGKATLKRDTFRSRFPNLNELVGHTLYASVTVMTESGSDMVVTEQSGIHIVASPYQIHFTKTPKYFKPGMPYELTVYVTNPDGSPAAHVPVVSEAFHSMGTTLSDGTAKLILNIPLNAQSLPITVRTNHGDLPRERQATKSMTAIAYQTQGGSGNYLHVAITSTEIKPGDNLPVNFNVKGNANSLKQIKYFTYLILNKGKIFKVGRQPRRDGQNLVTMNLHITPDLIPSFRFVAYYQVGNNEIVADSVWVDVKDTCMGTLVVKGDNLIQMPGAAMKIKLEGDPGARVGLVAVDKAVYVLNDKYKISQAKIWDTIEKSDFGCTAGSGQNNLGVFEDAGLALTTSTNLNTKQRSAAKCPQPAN
Chain of FB (Q91132 733-984 partner limits assumed): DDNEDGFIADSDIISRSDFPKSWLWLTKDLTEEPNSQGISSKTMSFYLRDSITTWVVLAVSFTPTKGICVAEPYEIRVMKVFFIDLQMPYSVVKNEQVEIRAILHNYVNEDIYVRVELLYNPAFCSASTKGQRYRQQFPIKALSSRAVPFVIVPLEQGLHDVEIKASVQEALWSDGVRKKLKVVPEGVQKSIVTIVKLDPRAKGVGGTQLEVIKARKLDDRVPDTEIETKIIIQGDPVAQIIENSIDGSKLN
Chain of FB (Q91132 1264-1642 partner limits assumed): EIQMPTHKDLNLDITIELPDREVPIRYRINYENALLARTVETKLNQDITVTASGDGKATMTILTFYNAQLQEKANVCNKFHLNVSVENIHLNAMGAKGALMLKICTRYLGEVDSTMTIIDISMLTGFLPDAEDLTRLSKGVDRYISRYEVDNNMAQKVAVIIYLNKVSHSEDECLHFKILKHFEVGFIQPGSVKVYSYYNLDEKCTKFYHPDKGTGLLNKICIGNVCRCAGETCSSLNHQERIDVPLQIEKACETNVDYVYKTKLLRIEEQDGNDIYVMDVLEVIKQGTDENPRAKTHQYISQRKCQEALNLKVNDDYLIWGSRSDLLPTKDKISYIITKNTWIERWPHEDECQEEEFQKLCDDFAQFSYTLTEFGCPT
Method for FB: CVF (1 μM), FB (1 μM) and FD (300 nM) were incubated in Assay buffer (pH=7.4, 10 mM MgCl2, 0.05% (m/v), CHAPS) for 3 h at room temperature, so that all FB was cleaved into Baby FD and CVF:Bb complex was generated. SDS-PAGE analysis confirmed that FB was completely hydrolyzed, that is, the concentration of the generated CVF:Bb complex was 300 nM. The CVF:Bb complex was diluted to a concentration of 5 nM using Assay buffer and preincubated with different concentrations of the compounds in assay buffer for 1 h at room temperature. C3 was added to a final concentration of 1 μM to start the enzymatic reaction. After reacting at room temperature for 1 h, protease inhibitor mixture (Roche Complete Inhibitor Tablets) was added to stop the enzyme reaction. Human C3a ELISA kit (Hycult HK354-01) was used to determine the generation of C3a according to the instruction in the kit. The FB activity inhibition rate was plotted against the inhibitor concentration, and graphpad nonlinear regression was used to calculate the IC50 value.

Turning to `COc1cc(C)c2[nH]ccc2c1CN1CCC(C2CCCC2)C[C@H]1c1ccc(C(=O)O)cc1` (single isomer, unassigned) [Ammonium of compound 11 (diastereomer 1)], in data set [1], the IC50 was less than 200 nM.
For the compound `COc1cc(C)c2[nH]ccc2c1CN1CCN(C2CC2)CC1c1ccc(C(=O)O)cc1` (single isomer, unassigned) [Compound 27-1, 4-(4-cyclopropyl-1-((5-methoxy-7-methyl-1H-indol-4-yl)methyl)piperazin-2-yl)benzoic acid], in data set [1], the IC50 is less than 200 nM.
Take `COc1cc(C)c2[nH]ccc2c1CN1CCC(C2CCC2)C[C@H]1c1ccc(C(=O)O)cc1` (single isomer, unassigned) [Formate of [compound 8 (diastereomer 1)]]: the IC50 in data set [1] was less than 200 nM.
On to `COCC1CCN(Cc2c(OC)cc(C)c3[nH]ccc23)[C@H](c2ccc(C(=O)O)cc2)C1` (single isomer, unassigned) [Trifluoroacetate of compound 1-a], for which the half-inhibitory concentration (IC50) was less than 200 nM in data set [1] and less than 500 nM against FB.
`COc1cc(C)c2[nH]ccc2c1CN1CCC2(CCCO2)C[C@H]1c1ccc(C(=O)O)cc1` (single isomer, unassigned) [Trifluoroacetate of compound 2-a (diastereomer 1)]: the IC50 in data set [1] was less than 200 nM.
In the case of `[2H]C([2H])([2H])Oc1cc(C)c2[nH]ccc2c1CN1CCC2(CCCO2)C[C@H]1c1ccc(C(=O)O)cc1` (single isomer, unassigned) [Trifluoroacetate of compound 6], the half-inhibitory concentration (IC50) in data set [1] was less than 200 nM; on FB, less than 500 nM.
In the case of `COc1cc(C)c2[nH]ccc2c1CN1CCC(C2CC2)=C[C@H]1c1ccc(C(=O)O)cc1` [Ammonium salt of compound 12, (S)-4-(4-cyclopropyl-1-((5-methoxy-7-methyl-1H-indol-4-yl)methyl)-1,2,5,6-tetrahydropyridin-2-yl)benzoic acid], the IC50 in data set [1] is less than 200 nM.
As to `C#C[C@H]1CCN(Cc2c(OC)cc(C)c3[nH]ccc23)[C@H](c2ccc(C(=O)O)cc2)C1` [Compound 10 (diastereomer 1), 4-((2S)-4-ethynyl-1-((5-methoxy-7-methyl-1H-indol-4-yl)methyl)piperidin-2-yl)benzoic acid], in data set [2], the bioavailability was 56.2%, the AUC(0-t) came to 25300 ng·h/mL and the half-life was 8.89 h. In addition, the IC50 in data set [1] was less than 200 nM. For the same compound, in data set [3], the “maximum plasma concentration in rats” value was “higher”, the “oral bioavailability in rats” value is “higher”, the bioavailability is 57.8% and the Cmax was 2240 ng/mL. For the same compound, in data set [3], the time to peak (Tmax) was found to be 0.333 h, the half-life is 4.15 h, the AUC(0-t) was determined as 7920 ng·h/mL and the time to peak entry was “shorter”. In the data set with Caco-2 cells, the efflux ratio result is “lower” and the permeability result was “better”. For the same compound, in “Caco2 permeability test”, the efflux ratio at 2 h, 2 μM stood at 4.62; the Papp A→B at 2 h, 2 μM was determined as 2.62 ×10⁻⁶ cm/s; the Papp B→A at 2 h, 2 μM came to 12.1 ×10⁻⁶ cm/s.
Turning to `C#CCC1CCN(Cc2c(OC)cc(C)c3[nH]ccc23)[C@H](c2ccc(C(=O)O)cc2)C1` (stereo partly drawn) [Compound 13, 4-((2S)-1-((5-methoxy-7-methyl-1H-indol-4-yl)methyl)-4-(prop-2-yn-1-yl)piperidin-2-yl)benzoic acid], in data set [2], the bioavailability is greater than 60%, the AUC(0-t) is 36100 ng·h/mL and the half-life was 7.26 h. In data set [4], the bioavailability in monkeys result is listed as “higher”, the “oral exposure in monkeys” value was “higher”, the bioavailability was determined as 70.5 ± 4.5% and the AUC(0-t) worked out at 16600 ± 1070 ng·h/mL. In addition, the IC50 in data set [1] was less than 200 nM. Also, in data set [3], the “maximum plasma concentration in rats” value was “higher”, the “oral bioavailability in rats” value is “higher”, the bioavailability came to 65.5% and the highest level (Cmax) was 1600 ng/mL. Also, in data set [3], the Tmax stood at 0.583 h, the half-life was 3.41 h, the AUC(0-t) was determined as 6030 ng·h/mL and the time to peak result is “shorter”. Further, in the data set on Caco-2 cells, the efflux ratio entry is “lower” and the permeability result is given as “better”. Further, in “Caco2 permeability test”, the efflux ratio at 2 h, 2 μM was 8.18; the Papp A→B at 2 h, 2 μM amounted to 2.55 ×10⁻⁶ cm/s; the Papp B→A at 2 h, 2 μM amounted to 20.9 ×10⁻⁶ cm/s.
Take `COCCO[C@H]1CCN(Cc2c(OC)cc(C)c3[nH]ccc23)[C@H](c2ccc(C(=O)O)cc2)C1` [Trifluoroacetate of compound 3, 4-[(2S,4S)-1-[(5-methoxy-7-methyl-1H-indol-4-yl)methyl]-4-(2-methoxyethoxy)piperidin-2-yl]benzoic acid]: the IC50 in data set [1] is less than 200 nM.
In the case of `COc1cc(C)c2[nH]ccc2c1CN1CC[C@H](C2CC2)C[C@H]1c1ccc(C(=O)O)cc1` [Trifluoroacetate of compound 5-1 (diastereomer 2), 4-((2S)-4-cyclopropyl-1-((5-methoxy-7-methyl-1H-indol-4-yl)methyl)piperidin-2-yl)benzoic acid], the IC50 in data set [1] was less than 200 nM.
Take `[2H]C([2H])([2H])Oc1cc(C)c2[nH]ccc2c1CN1CC[C@H](C2CC2)C[C@H]1c1ccc(C(=O)O)cc1` [Trifluoroacetate of compound 7 (diastereomer 1), 4-((2S)-4-cyclopropyl-1-((5-(methoxy-d3)-7-methyl-1H-indol-4-yl)methyl)piperidin-2-yl)benzoic acid]: in data set [2], the bioavailability was 75.5%, the AUC(0-t) was found to be 45400 ng·h/mL and the half-life was 15.1 h. In data set [4], the bioavailability in monkeys entry is “higher”, the “oral exposure in monkeys” value is reported as “higher”, the bioavailability is 98.3 ± 7.5% and the AUC(0-t) came to 48300 ± 3660 ng·h/mL. Moreover, the IC50 in data set [1] was less than 200 nM. In data set [3], the “maximum plasma concentration in rats” value is on record as “higher”, the “oral bioavailability in rats” value was “higher”, the bioavailability worked out at 72.1% and the highest level (Cmax) was 1130 ng/mL. In addition, in data set [3], the half-life is 3.2 h and the AUC(0-t) worked out at 9160 ng·h/mL. Besides, the permeability result in the data set with Caco-2 cells is “better”. In the data set “Caco2 permeability test”, this compound gave a Papp A→B at 2 h, 2 μM of 1.77 ×10⁻⁶ cm/s and an apparent permeability from basolateral to apical (Papp B→A) at 2 h, 2 μM of 19.4 ×10⁻⁶ cm/s.
